Data as given in ChEMBL document CHEMBL1667778, “Naphthalene/quinoline amides and sulfonylureas as potent and selective antagonists of the EP4 receptor” (Bioorg Med Chem Lett, 2011).

Key:
[1] = Elimination half life in Sprague-Dawley rat at 5 mg/kg, iv and 20 mg/kg, po; format: ADME, organism-based; conditions: in vivo
[2] = Elimination half life in Beagle dog at 1 mg/kg, iv and 4 mg/kg, po; format: ADME, organism-based, Canis lupus familiaris; conditions: in vivo
[3] = Bioavailability in Sprague-Dawley rat at 5 mg/kg, iv and 20 mg/kg, po; format: ADME, organism-based; conditions: in vivo
[4] = Bioavailability in Beagle dog at 1 mg/kg, iv and 4 mg/kg, po; format: ADME, organism-based, Canis lupus familiaris; conditions: in vivo
[5] = AUC (0 to 24 hrs) in Sprague-Dawley rat at 20 mg/kg, po; format: ADME, organism-based; design: time < 24 hr, dose 20 mg/kg, route oral; conditions: plasma
[6] = AUC (0 to 24 hrs) in Beagle dog at 4 mg/kg, po; format: ADME, organism-based, Canis lupus familiaris; design: time < 24 hr, dose 4 mg/kg, route oral; conditions: plasma
[7] = Clearance in Sprague-Dawley rat at 5 mg/kg, iv and 20 mg/kg, po; format: ADME, organism-based; conditions: in vivo
[8] = Clearance in Beagle dog at 1 mg/kg, iv and 4 mg/kg, po; format: ADME, organism-based, Canis lupus familiaris; conditions: in vivo
[9] = Metabolic stability in rat liver microsome; format: ADME; conditions: microsomes
[10] = Metabolic stability in human liver microsome; format: ADME; conditions: microsomes
[11] = test system: Hepatocyte; test: Metabolic stability in human hepatocytes; format: ADME, cell-based
[12] = test system: Hepatocyte; test: Metabolic stability in rat hepatocytes; format: ADME, cell-based
[13] = test system: Plasma; test: Drug level in Sprague-Dawley rat plasma at 150 uCi/kg, po after 24 hrs; format: ADME, organism-based; conditions: in vivo
[14] = test system: Liver; test: Drug level in Sprague-Dawley rat liver at 150 uCi/kg, po after 24 hrs; format: ADME, organism-based; conditions: in vivo

half-life [1]: 396 min
half-life [2]: 258 min
bioavailability [3]: 84%
bioavailability [4]: 100%
AUC(0-t) at 24 h [5]: 37.4 µM·h
AUC(0-t) at 24 h [6]: 101 µM·h
clearance [7]: 11 mL/min/kg
clearance [8]: 1.2 mL/min/kg
Stability [9]: 97%
Stability [10]: 90%
Stability [11]: 96%
Stability [12]: 91%
Drug uptake [13]: < 10 pmol/mg
Drug uptake [14]: < 10 pmol/mg
Structure (SMILES): CCOc1c2c(c(OCC)c3ccccc13)C(=O)N(c1ccc(CC3(NC(=O)NS(=O)(=O)c4c(Cl)cccc4Cl)CC3)cc1C)C2
